Reference: PubChem BioAssay AID2060503 (Molecular Pharmacology Branch, DTP, NCI, 2025)
Where “and” joins values, the source holds several entries; their conditions need not be identical. Identical values can stand only once.

Tested on: 817829-284-R-J1-PDC complex spheroids, viability
Experiment: Anticancer human tumor 817829-284-R-J1-PDC patient-derived colon adenocarcinoma cell line growth inhibition [GQUAD]
Details: for viability, T/C: stronger effect = lower value
From the text: DNA G-quadruplex Stabilizer Agents in Combinations in Complex Spheroids
A high-throughput screen of multi-cell type tumor spheroids was designed to identify active combinations of DNA G-quadruplex stabilizer agents and targeted small molecules. Complex spheroids include a stromal component modeled by human endothelial cells (HUVEC) and fibroblasts modeled by human mesenchymal stem cells (MSCs). The concentration ranges selected for each drug and investigational agent were based upon clinically achievable concentrations if the clinical Cmax of the agent was known.
Compounds. The drugs and investigational agents: pidnarulex (CX-5461; NSC782164), APTO-253 (NSC789042), BRACO-19 (NSC847499), peposertib (NSC802822), ceralasertib (NSC780249), elimusertib (NSC800525), camonsertib (NSC841442), AZD-1390 (NSC803789), olaparib (NSC753686), talazoparib (NSC767125), ART-558 (NSC835418), sotorasib (NSC818433), MRTX-1133 (NSC836407), SN-38 (NSC673596), topotecan (NSC609699), etoposide (NSC141540), doxorubicin (NSC123127), gemcitabine (NSC613327), 5-fluorouracil (NSC19893), paclitaxel (NSC125973), vemurafenib (NSC761431), panobinostat (NSC761190), R-306465 (JNJ-16241199; NSC773264), adavosertib (NSC754352), TP-3654 (NSC805149), carboplatin (NSC241240), KSQ-4279 (NSC840948), and staurosporine (NSC755774) were obtained from the National Cancer Institute (NCI) Developmental Therapeutics Program Chemical Repository (34). The FDA-approved anticancer drug set is available from the NCI Developmental Therapeutics Program. […] The stock solutions were prepared in dimethyl sulfoxide (DMSO, Sigma-Aldrich, St. Louis, MO, cat. D2650) at 800-fold the tested concentration and stored at -70 degrees C prior to their use. All drugs and investigational agents were tested over a range starting from a high concentration at or near the clinical Cmax and decreasing in half-log increments. If the clinical Cmax for an agent had not been determined, the highest concentration tested was 10 microM.
2.3 Cell Culture. All cells were maintained in an incubator at 37 degrees C and 5% CO2 with 95% humidity. The PDC lines were cultured according to standard operating procedures established by the NCI PDMR. All PDCs were thawed and cultured in Matrigel-coated flasks prepared with a working solution of 1X Ham's F-12 nutrient mix, without supplementation (Invitrogen, cat. 11765054), 100 U/mL penicillin-streptomycin (Invitrogen, cat. 15140122), and 2.5% Matrigel (Corning Inc., cat. 354248) for the first three passages. The 857933-349-R-J2-PDC line was cultured in 6C/Colon 1B media, which includes advanced DMEM/F-12 (Thermo Fisher Scientific, cat. 12634028), 10 mM HEPES (Thermo Fisher Scientific, cat. 15630080), 1X GlutaMAX supplement (Thermo Fisher Scientific, cat. 35050061), 0.1 mg/mL primocin (InvivoGen, cat. ant-pm-2), 10% defined fetal bovine serum, heat inactivated (HyClone Laboratories Inc., cat. SH30070.03HI), 50% L-WRN conditioned media (ATCC, cat. CRL-3276), 1.25 mM N-Acetyl-L-cysteine (Sigma-Aldrich, cat. A9165), 10 mM nicotinamide (Sigma-Aldrich, cat. N0636), 1X B-27 supplement (Thermo Fisher Scientific, cat. 17504044), 1X N-2 supplement (Thermo Fisher Scientific, cat. 17502048), 10 microM Y-27632 dihydrochloride (Tocris Bioscience, cat. 1254), and 50 ng/mL human EGF recombinant protein (Thermo Fisher Scientific, cat. PHG0311). The 485176-168-R4-J1-PDC line was cultured in Panc media, which includes all 6C/Colon 1B media components plus 100 ng/mL human FGF-10 (Thermo Fisher Scientific, cat. 100-26), 500 nM SB-431542 (Selleckchem, cat. S1067), and gastrin (Tocris, cat. 3006).
[…]
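Also: spheroids exposed to agents for 7 days before readout.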
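For viability, T/C in this document: percent viability relative to DMSO vehicle control taken as 100%.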

With `C#Cc1c(F)ccc2cc(O)cc(-c3ncc4c(N5CC6CCC(C5)N6)nc(OCC56CCCN5CC(F)C6)nc4c3F)c12` (stereo unspecified) the viability, T/C (compound 0.0316 µM) was 103% and 97.4% and 94.3%, the viability, T/C (compound 0.1 µM) was 88.4% and 96.9% and 109% and the viability, T/C (compound 0.316 µM) was 99.2% and 102% and 103%. For the same molecule, the viability, T/C (compound 1 µM) was 84.3% and 102% and 93.9%, the viability, T/C (compound 3.16 µM) was 110% and 95.8% and 102% and the viability, T/C (compound 10 µM) was 114% and 104% and 131%. For the same molecule, the IC50 (curve of compound) was over 10000 nM.
For `C=CC(=O)N1CCN(c2nc(=O)n(-c3c(C)ccnc3C(C)C)c3nc(-c4c(O)cccc4F)c(F)cc23)C(C)C1` (stereo unspecified), the viability, T/C (compound 0.0316 µM) was 94.6% and 98.7% and 113%, the viability, T/C (compound 0.1 µM) was 87.2% and 97.6% and 96.2% and the viability, T/C (compound 0.316 µM) was 96% and 99.3% and 113%. The viability, T/C (compound 1 µM) was 84.4% and 93.2% and 89.2%, the viability, T/C (compound 3.16 µM) was 108% and 102% and 112% and the viability, T/C (compound 10 µM) was 98.3% and 81.2% and 102%. It also gave an IC50 (curve of compound) of over 10000 nM.
In the case of `C=CCn1c(=O)c2cnc(Nc3ccc(N4CCN(C)CC4)cc3)nc2n1-c1cccc(C(C)(C)O)n1`, the viability, T/C (compound 0.0316 µM) is reported as 97.1% and 105% and 99.8%, the viability, T/C (compound 0.1 µM) is reported as 95.4% and 102% and 93.9% and the viability, T/C (compound 0.316 µM) is reported as 37.1% and 32.5% and 33.8%. The viability, T/C (compound 1 µM) was 7.67% and 9.37% and 5.53%, the viability, T/C (compound 3.16 µM) was 6.89% and 6.69% and 4.84% and the viability, T/C (compound 10 µM) was 5.09% and 5.85% and 4.19%. The IC50 (curve of compound) was 245 nM and 237 nM and 232 nM.
`CC(=O)O[C@H]1C(=O)[C@@]2(C)[C@H]([C@H](OC(=O)c3ccccc3)[C@]3(O)C[C@H](OC(=O)[C@H](O)[C@@H](NC(=O)c4ccccc4)c4ccccc4)C(C)=C1C3(C)C)[C@]1(OC(C)=O)CO[C@@H]1C[C@@H]2O` was tested, and the viability, T/C (compound 0.0316 µM) was 5.56% and 11.2% and 8.51%, the viability, T/C (compound 0.1 µM) was 5.44% and 6.01% and 3.69% and the viability, T/C (compound 0.316 µM) was 5.01% and 4.83% and 4.1%. The viability, T/C (compound 1 µM) was 4.55% and 4.35% and 3.93%, the viability, T/C (compound 3.16 µM) was 3.56% and 3.34% and 3.72% and the viability, T/C (compound 10 µM) was 5.03% and 4.92% and 4.14%. The IC50 (curve of compound) was under 31.6 nM.
With `CC(C)(O)C1CCC(Nc2ccc3ncc(-c4cccc(C(F)(F)F)c4)n3n2)CC1` (stereo unspecified) the viability, T/C (compound 0.0316 µM) was 99.8% and 97.4% and 104%, the viability, T/C (compound 0.1 µM) was 95.4% and 98.8% and 80.9% and the viability, T/C (compound 0.316 µM) was 106% and 104% and 101%. The viability, T/C (compound 1 µM) was 68.3% and 84.7% and 79%, the viability, T/C (compound 3.16 µM) was 50.6% and 46.8% and 19.7% and the viability, T/C (compound 10 µM) was 67.2% and 53% and 22.6%. For the same molecule, the IC50 (curve of compound) was > 10000 nM and 1780 nM.
For `CC(C)n1c(=O)n(C)c2cnc3cc(F)c(-c4ccc(OCCCN5CCCCC5)nc4)cc3c21`, the viability, T/C (compound 0.0316 µM) was 106% and 107% and 100%, the viability, T/C (compound 0.1 µM) was 101% and 102% and 97.5% and the viability, T/C (compound 0.316 µM) was 95.1% and 105% and 102%. For the same molecule, the viability, T/C (compound 1 µM) was 89.8% and 100% and 89.2%, the viability, T/C (compound 3.16 µM) was 104% and 113% and 101% and the viability, T/C (compound 10 µM) was 107% and 103% and 60.3%. The IC50 (curve of compound) was over 10000 nM.
With `CC1COCCN1c1cc(-c2ccnn2C)c2ccnc(-c3ccn[nH]3)c2n1` (stereo unspecified) the viability, T/C (compound 0.0316 µM) was 67.1% and 49.9% and 63.2%, the viability, T/C (compound 0.1 µM) was 15.9% and 20.1% and 19.1% and the viability, T/C (compound 0.316 µM) was 8.87% and 9.11% and 9.13%. The viability, T/C (compound 1 µM) was 5.41% and 7.67% and 7.19%, the viability, T/C (compound 3.16 µM) was 5.54% and 7.47% and 5.88% and the viability, T/C (compound 10 µM) was 4.28% and 5.96% and 5.46%. The IC50 (curve of compound) was 46.4 nM and < 31.6 nM and 44.4 nM.
`CC1COCCN1c1cc(C2(O)CC3CCC(C2)O3)c2cnn(-c3ccn[nH]3)c2n1` (stereo unspecified) was tested, and the viability, T/C (compound 0.0316 µM) was 39.5% and 42.2% and 31.3%, the viability, T/C (compound 0.1 µM) was 10.2% and 9.96% and 13.3% and the viability, T/C (compound 0.316 µM) was 7.94% and 8.95%. The viability, T/C (compound 1 µM) was 6.19% and 4.8% and 7.29%, the viability, T/C (compound 3.16 µM) was 5.19% and 5.01% and 5.9% and the viability, T/C (compound 10 µM) was 2.86% and 3.51% and 4.63%. The IC50 (curve of compound) was under 31.6 nM.
With `CC1COCCN1c1cc(C2(S(C)(=N)=O)CC2)nc(-c2ccnc3[nH]ccc23)n1` (stereo unspecified) the viability, T/C (compound 0.0316 µM) was 112% and 93.9% and 91.7%, the viability, T/C (compound 0.1 µM) was 89.1% and 102% and 105% and the viability, T/C (compound 0.316 µM) was 93.1% and 88.9% and 90%. The viability, T/C (compound 1 µM) was 24.1% and 27.1% and 31.6%, the viability, T/C (compound 3.16 µM) was 11% and 9.68% and 11.2% and the viability, T/C (compound 10 µM) was 8.31% and 9.22% and 9.36%. For the same molecule, the IC50 (curve of compound) was 649 nM and 654 nM and 697 nM.
For `CCCS(=O)(=O)Nc1ccc(F)c(C(=O)c2c[nH]c3ncc(-c4ccc(Cl)cc4)cc23)c1F`, the viability, T/C (compound 0.0316 µM) was 117% and 113% and 109%, the viability, T/C (compound 0.1 µM) was 106% and 102% and 81.6% and the viability, T/C (compound 0.316 µM) was 110% and 103% (2×). For the same molecule, the viability, T/C (compound 1 µM) was 92.1% and 92.8% and 79.2%, the viability, T/C (compound 3.16 µM) was 75.5% and 88.9% and 75.2% and the viability, T/C (compound 10 µM) was 21% and 22% and 16.1%. The IC50 (curve of compound) was 5280 nM and 6050 nM and 4910 nM.
With `CC[C@@]1(O)C(=O)OCc2c1cc1n(c2=O)Cc2cc3c(CN(C)C)c(O)ccc3nc2-1` the viability, T/C (compound 0.000999 µM) was 107% and 116% and 105%, the viability, T/C (compound 0.00316 µM) was 94.3% (2×) and 87.9% and the viability, T/C (compound 0.00999 µM) was 107% (2×) and 109%. The viability, T/C (compound 0.0316 µM) was 53.6% and 60.3% and 47.5%, the viability, T/C (compound 0.0999 µM) was 33.9% and 45.5% and 27.7% and the viability, T/C (compound 0.316 µM) was 26.1% and 37.7% and 29.7%. The IC50 (curve of compound) was 37.6 nM and 59.5 nM and 30.1 nM.
`CCc1c2c(nc3ccc(O)cc13)-c1cc3c(c(=O)n1C2)COC(=O)[C@]3(O)CC` was tested, and the viability, T/C (compound 0.000999 µM) was 63% and 65.3% and 63.2%, the viability, T/C (compound 0.00316 µM) was 26.9% and 40% and 26.7% and the viability, T/C (compound 0.00999 µM) was 24.7% and 33% and 30.2%. For the same molecule, the viability, T/C (compound 0.0316 µM) was 15.5% and 21.2% and 14.7%, the viability, T/C (compound 0.0999 µM) was 9.08% and 10.2% and 7.65% and the viability, T/C (compound 0.316 µM) was 5.27% and 4.91% and 3.96%. For the same molecule, the IC50 (curve of compound) was 1.58 nM and 2.31 nM and 1.63 nM.
With `CN(C)c1ccc(Nc2c3ccc(NC(=O)CCN4CCCC4)cc3nc3cc(NC(=O)CCN4CCCC4)ccc23)cc1` the viability, T/C (compound 0.0316 µM) was 102% [middle of 12 runs], the viability, T/C (compound 0.1 µM) was 99.2% [middle of 12 runs] and the viability, T/C (compound 0.316 µM) was 97.7% [middle of 12 runs]. The viability, T/C (compound 1 µM) was 102% [middle of 12 runs], the viability, T/C (compound 3.16 µM) was 100% [middle of 12 runs] and the viability, T/C (compound 10 µM) was 93.7% [middle of 12 runs]. It also gave an IC50 (compound alone, run of 02/26/2024) of over 10000 nM.
